{"source": "patent US20060019938A1", "about": "“Estrogen administration for treating male cognitive dysfunction or improving male cognitive function” (priority 2003, published 2006)", "assay_type_in_all_cases": "in vivo, human", "key": {"[1]": {"test_system": "men with androgen-independent prostate cancer", "assay": "Toxicity monitoring (thromboembolic complications) during transdermal estradiol", "settings": "0.6 mg estradiol/day transdermal, at time of most recent analysis", "protocol": "(§1) Standard prophylactic breast irradiation was offered to all patients prior to therapy to reduce the risk of gynecomastia. Six Climara® estradiol patches (25.0 cm^2, 7.6 mg estradiol per patch) were adhered to the patients once every 7 days for a period of at least 4 weeks for a dosage of 0.6 mg estradiol/day (in vivo estradiol delivery per patch is 0.1 mg/day).\n(§2) Certain cognitive functions of the patients were evaluated prior to starting estradiol treatment and approximately 4 weeks after starting estradiol treatment. Specifically, memory was assessed using immediate and delayed Paragraph Recall test and working memory was assessed using the SOP and Trails tests. Serum estradiol concentration was also measured after approximately 4 weeks of treatment, as well as other standard monitoring measurements. The Paragraph Recall test was performed as described above. The SOP test was performed as described above and was computer-administered with 8 and 10 card sets. Each card of the set was depicted on a computer screen and the subject selected the drawing for each card by pressing a corresponding number on the keyboard. The Trails test was performed as described above."}, "[2]": {"assay": "Serum testosterone (total and free) before and after transdermal estradiol", "settings": "Visit 2, after about 4 weeks transdermal estradiol, Example 2", "from_the_text": "Research subjects consisted of healthy men, and men who have been diagnosed with prostate cancer that were between the ages of 45-100. The subjects were classified into three groups: (1) Prostate cancer patients progressing on ADT and before and after starting second line therapy with transdermal estradiol as described above; (2) Prostate cancer patients continuing ADT; and (3) Age-matched healthy controls. The treatment regimen of these men was not modified as part of their participation in this study. […]\n(§3) The monitoring was similar as described above in connection with example 1. Certain cognitive functions of the patients were evaluated at the beginning of the study and then approximately 4 weeks later. In the case of patients receiving estradiol treatments, the patients were evaluated prior to the initial estradiol and then approximately 4 weeks after starting estradiol treatment. Verbal memory was assessed using the immediate Paragraph Recall test and working memory was assessed using the Trails tests. Serum estradiol concentration was also measured after approximately 4 weeks of treatment, as well as other standard monitoring measurements."}, "[3]": {"assay": "Serum estradiol concentration during transdermal estradiol treatment", "protocol": "Standard prophylactic breast irradiation was offered to all patients prior to therapy to reduce the risk of gynecomastia. Six […]® estradiol patches (25.0 cm^2, 7.6 mg estradiol per patch) were adhered to the patients once every 7 days for a period of at least 4 weeks for a dosage of 0.6 mg estradiol/day (in vivo estradiol delivery per patch is 0.1 mg/day). Certain cognitive functions of the patients were evaluated prior to starting estradiol treatment and approximately 4 weeks after starting estradiol treatment. Specifically, memory was assessed using immediate and delayed Paragraph Recall test and working memory was assessed using the SOP and Trails tests. Serum estradiol concentration was also measured after approximately 4 weeks of treatment, as well as other standard monitoring measurements. The Paragraph Recall test was performed as described above. The SOP test was performed as described above and was computer-administered with 8 and 10 card sets. Each card of the set was depicted on a computer screen and the subject selected the drawing for each card by pressing a corresponding number on the keyboard. The Trails test was performed as described above. The monitoring was similar as described above in connection with example 1. Certain cognitive functions of the patients were evaluated at the beginning of the study and then approximately 4 weeks later. In the case of patients receiving estradiol treatments, the patients were evaluated prior to the initial estradiol and then approximately 4 weeks after starting estradiol treatment. Verbal memory was assessed using the immediate Paragraph Recall test and working memory was assessed using the Trails tests. Serum estradiol concentration was also measured after approximately 4 weeks of treatment, as well as other standard monitoring measurements."}, "[4]": {"test_system": "men with androgen-independent prostate cancer", "assay": "Trails working memory test", "from_the_text": "A further illustrative working memory test is known as the Trails test. This test is a dot-to-dot paper pencil test where the subject connects dots (1-2-3-4 etc.). On a second measure they connect dots but the dots are labeled alternately in letters and numbers so they have to shift their cognitive set and keep in mind where they are in each set: 1 to A to 2 to B to 3 etc. Their score is the number of seconds to complete the dot to dot. Estradiol was transdermally administered to nineteen men with androgen-independent prostate cancer following a protocol outlined below. Standard prophylactic breast irradiation was offered to all patients prior to therapy to reduce the risk of gynecomastia. […] Certain cognitive functions of the patients were evaluated prior to starting estradiol treatment and approximately 4 weeks after starting estradiol treatment. Specifically, memory was assessed using immediate and delayed Paragraph Recall test and working memory was assessed using the SOP and Trails tests. Serum estradiol concentration was also measured after approximately 4 weeks of treatment, as well as other standard monitoring measurements. […] Certain cognitive functions of the patients were evaluated at the beginning of the study and then approximately 4 weeks later. […] Verbal memory was assessed using the immediate Paragraph Recall test and working memory was assessed using the Trails tests. […]"}, "[5]": {"test_system": "men with androgen-independent prostate cancer", "assay": "Subject Ordered Pointing (SOP) working memory test", "from_the_text": "An illustrative working memory test is known as Subject Ordered Pointing (SOP). SOP is described, for example, in Janowsky et al., “Sex steroids modify working memory,” J Cogn Neuroscience 12(3):407-14, 2000 and Petrides et al., “Deficits on subject-ordered tasks after frontal- and temporal-lobe lesions in man,” Neuropsychologia 20:249-62, 1982. In general, subjects are presented with stacks of cards (6, 8, 10 or 12 cards/sets). […] The subject is to touch one drawing on each card in any order, but not touch the same drawing on subsequent cards in the set. Subjects err when they touch a drawing that had been touched on a previous card in the set. Therefore, the subject has to remember previous drawings touched while planning a future response. Subjects repeat each 6, 8, 10, and 12 card set three times. The total number of errors across all card sets is the measure of interest. […] Subjects are instructed to do the task at their own pace, and to try to not go too quickly or too slowly.\n(§4) Estradiol was transdermally administered to nineteen men with androgen-independent prostate cancer following a protocol outlined below.\nas §1\nas §2, with “Each card of the set was depicted on a computer screen and the subject selected the drawing for each card by pressing a corresponding number on the keyboard. The Trails test was performed as described above.” left out"}, "[6]": {"test_system": "prostate cancer patients progressing on ADT", "assay": "Profile of Mood States (POMS) test, confusion subscale", "settings": "Example 2, prostate cancer patients progressing on ADT", "from_the_text": "Research subjects consisted of healthy men, and men who have been diagnosed with prostate cancer that were between the ages of 45-100. The subjects were classified into three groups: (1) Prostate cancer patients progressing on ADT and before and after starting second line therapy with transdermal estradiol as described above; (2) Prostate cancer patients continuing ADT; and (3) Age-matched healthy controls. The treatment regimen of these men was not modified as part of their participation in this study. Exclusion criteria included currently taking hormone replacement, active malignancy other than prostate cancer or non-melanoma skin cancer, major surgery within last 4 weeks, and score less than 25 on the Mini-Mental State Exam (a screening measure for dementia). The participant characteristics are shown below in Table 3.\nThe estradiol administration was the same as in example 1.\nMood was assessed using a Profile of Mood States (POMS) test as described in McNair et al, Profile of mood states manual (Education and Industrial Testing Service, San Diego (1971)). Participants completed the POMS test at both testing sessions (i.e., beginning of study and 4 weeks later). The scale asks participants to rate how they felt in the last week. Responses are categorized into six subscales (tension-anxiety, depression, anger, fatigue, confusion and vigor). […]"}, "[7]": {"test_system": "men with androgen-independent prostate cancer", "assay": "Paragraph Recall test (immediate and delayed; long-term/verbal memory)", "protocol": "One illustrative declarative memory test for assessing the medial temporal lobe memory system is known as a Paragraph Recall Task. This task is a subtest of the Weschler Memory Scale—Revised. A subject is read a short story and then immediately asked to recall the story. After an approximate 30 minute retention interval, they are asked to recall the story again. The recall responses are scored for number of story items correctly recalled and there is a standard scoring system. There are two stories for each administration so the total score is the total of both stories combined; one for immediate memory; and one for delayed memory.\nas §4, §1, §2, §3"}, "[8]": {"settings": "Example 2, prostate cancer patients progressing on ADT"}, "[9]": {"settings": "Example 1, men with AIPC treated with estradiol"}, "[10]": {"settings": "on estrogen, about 4 weeks, 0.6 mg/day transdermal, data from 18 subjects"}, "[11]": {"settings": "on estradiol vs pre-treatment, about 4 weeks"}, "[12]": {"settings": "on estrogen, about 4 weeks, 0.6 mg estradiol/day transdermal, men with AIPC"}}, "data": [{"compound": "C[C@]12CC[C@@H]3c4ccc(O)cc4CC[C@H]3[C@@H]1CC[C@@H]2O", "note": "[Estradiol, estra-1,3,5(10)-triene-3,17β-diol]", "values": [{"measurement": "thromboembolic complications or other significant toxicity", "setting": "[1]", "value": "no thromboembolic complications or other significant toxicity issues"}, {"measurement": "Free T", "setting": "[2]", "value": "3.5 (1.9) pmol/L"}, {"measurement": "Total T", "setting": "[2]", "value": "9.7 (3.9) ng/dL"}, {"measurement": "Estradiol (serum)", "setting": "[3]; Visit 2, after about 4 weeks transdermal estradiol, Example 2", "value": "428.8 (280.7) pg/mL"}, {"measurement": "concentration at 1 month", "setting": "[3]; human, serum, other: transdermal, 0.6 mg/day, 1 month of treatment, Example 1, read-out: Estradiol, mean ± 95% CI", "value": "0.46 ± 0.126", "unit": "ng/mL"}, {"measurement": "concentration at 2 months", "setting": "[3]; human, serum, other: transdermal, 0.6 mg/day, 2 months of treatment, Example 1, read-out: Estradiol, mean ± 95% CI", "value": "0.371 ± 0.115", "unit": "ng/mL"}, {"measurement": "working memory (Trails test, FIG. 1)", "setting": "[4]; [8]", "value": "did not affect working memory"}, {"measurement": "Trails (seconds B-A)", "setting": "[4]; on estrogen, about 4 weeks, 0.6 mg/day transdermal, data from 15 subjects", "value": 69.9, "unit": "s"}, {"measurement": "working memory (Subject-Ordered and Trails tests)", "setting": "[5]; [9]", "value": "no change in working memory"}, {"measurement": "Subject Ordered (# of errors), 8 item", "setting": "[5]; [10]", "value": "6.3 # of errors"}, {"measurement": "Subject Ordered (# of errors), 10 item", "setting": "[5]; [10]", "value": "7.0 # of errors"}, {"measurement": "confusion (POMS, FIGS. 3 and 4)", "setting": "[6]", "value": "trend for men receiving estradiol to report a decrease in confusion"}, {"measurement": "long-term memory", "setting": "[7]; [9]", "value": "significant improvement in their long-term memory"}, {"measurement": "verbal memory performance (immediate Paragraph Recall, FIG. 2)", "setting": "[7]; [8]", "value": "improved verbal memory performance"}, {"measurement": "delayed Paragraph Recall test score improvement", "setting": "[7]; [11]", "value": 27, "unit": "%"}, {"measurement": "immediate Paragraph Recall test score improvement", "setting": "[7]; [11]", "value": 19, "unit": "%"}, {"measurement": "Paragraph Recall (delay; # correct)", "setting": "[7]; [12]", "value": "18.8 # correct"}, {"measurement": "Paragraph Recall (immediate; # correct)", "setting": "[7]; [12]", "value": "22.9 # correct"}]}]}
